{"source": "ChEMBL document CHEMBL5113519", "about": "“Discovery of Novel Imidazo[4,5-c]quinoline Derivatives to Treat Inflammatory Bowel Disease (IBD) by Inhibiting Multiple Proinflammatory Signaling Pathways and Restoring Intestinal Homeostasis” (J Med Chem, 2022)", "key": {"[1]": {"assay": "Cytotoxicity against human GM00637 cells assessed as inhibition of cell growth measured after 24 hrs by CCK-8 method", "assay_type": "toxicity, cell-based"}, "[2]": {"assay": "Toxicity in mouse assessed as abnormal change in kidney at 50 mg/kg, IG measured upto 2 weeks", "assay_type": "organism-based", "conditions": "in vivo, po, 336 h"}, "THP1-Dual [3]": {"tested_on": "THP1-Dual", "assay": "Inhibition of LPS induced IL-1 beta expression in human THP1-Dual cells at 1 uM incubated for 6 hrs", "assay_type": "functional, cell-based"}, "THP1-Dual [4]": {"tested_on": "THP1-Dual", "assay": "Anti-inflammatory activity against LPS-stimulated human THP1-Dual cells assessed as reduction in STAT3 phosphorylation level incubated for 6 hrs by Western blot analysis", "assay_type": "functional, cell-based", "conditions": "dose 0.33-3 µM, DDE = dose-dependent effect"}, "THP1-Dual [5]": {"tested_on": "THP1-Dual", "assay": "Downregulation of TNF alpha in human THP1-Dual cells at 1 uM incubated for 6 hrs", "assay_type": "functional, cell-based"}, "Mus musculus [6]": {"tested_on": "Mus musculus", "assay": "Antiinflammatory activity in DSS-induced acute colitis C57BL/6 mouse model assessed as reduction stool softness by measuring DAI score at 1 to 3 mg/kg, po administered daily and measured upto 11 days", "assay_type": "functional, organism-based", "conditions": "dose 1-3 mg/kg, time <= 11.0 day"}, "THP1-Dual [7]": {"tested_on": "THP1-Dual", "assay": "Inhibition of LPS induced IL-23A expression in human THP1-Dual cells at 1 uM incubated for 6 hrs", "assay_type": "functional, cell-based"}, "THP1-Dual [8]": {"tested_on": "THP1-Dual", "assay": "Anti-inflammatory activity against LPS-stimulated human THP1-Dual cells assessed as inhibition of IL-1 beta secretion incubated for 6 hrs followed by LPS stimulation by Western blot analysis", "assay_type": "functional, cell-based", "conditions": "dose 0.33-3 µM, DDE = dose-dependent effect"}, "Mus musculus [9]": {"tested_on": "Mus musculus", "assay": "Antiinflammatory activity in DSS-induced acute colitis C57BL/6 mouse model assessed as reduction in bloody stool by measuring DAI score at 1 to 3 mg/kg, po administered daily and measured upto 11 days", "assay_type": "functional, organism-based", "conditions": "dose 1-3 mg/kg, time <= 11.0 day"}, "Mus musculus [10]": {"tested_on": "Mus musculus", "assay": "Antiinflammatory activity in DSS-induced acute colitis C57BL/6 mouse model assessed as recovery of colon length at 1 to 3 mg/kg, po administered daily and measured upto 11 days", "assay_type": "functional, organism-based", "conditions": "dose 1-3 mg/kg, time <= 11.0 day"}, "THP1-Dual [11]": {"tested_on": "THP1-Dual", "assay": "Downregulation of JAK/STAT in human THP1-Dual cells at 1 uM incubated for 6 hrs", "assay_type": "functional, cell-based"}, "[12]": {"assay": "Toxicity in mouse assessed as effect on white blood cell number at 50 mg/kg, IG measured upto 2 weeks", "assay_type": "organism-based", "conditions": "in vivo, po, 336 h"}, "Mus musculus [13]": {"tested_on": "Mus musculus", "assay": "Antiinflammatory activity in DSS-induced acute colitis C57BL/6 mouse model assessed as reduction in inflammatory cell infiltration in colon by measuring histopathological score at 1 to 3 mg/kg, po by H and E staining based analysis", "assay_type": "functional, organism-based", "conditions": "dose 1-3 mg/kg"}, "[14]": {"assay": "Toxicity in mouse assessed as behavioral changes at 20 to 50 mg/kg, IG measured upto 2 weeks", "assay_type": "organism-based", "conditions": "in vivo, po, 336 h, dose 20-50 mg/kg"}, "Mus musculus [15]": {"tested_on": "Mus musculus", "assay": "Anti-inflammatory activity in TNBS induced IBD BALB/c mouse model assessed as reduction in bloody stool by measuring disease activity index score at 1 to 5 mg/kg via oral gavage administered daily for 12 days", "assay_type": "functional, organism-based", "conditions": "dose 1-5 mg/kg, time 12.0 day"}, "Mus musculus [16]": {"tested_on": "Mus musculus", "assay": "Anti-inflammatory activity in TNBS induced IBD BALB/c mouse model assessed as increase in survival probability at 5 mg/kg via oral gavage administered daily for 12 days", "assay_type": "functional, organism-based", "conditions": "time 12.0 day"}, "[17]": {"assay": "Toxicity in mouse assessed as abnormality in gastrointestinal tract at 20 to 50 mg/kg, IG measured upto 2 weeks", "assay_type": "organism-based", "conditions": "in vivo, po, 336 h, dose 20-50 mg/kg"}, "[18]": {"target": "Tyrosine-protein kinase JAK1 (Homo sapiens, UniProt P23458)", "sequence (P23458 whole entry)": "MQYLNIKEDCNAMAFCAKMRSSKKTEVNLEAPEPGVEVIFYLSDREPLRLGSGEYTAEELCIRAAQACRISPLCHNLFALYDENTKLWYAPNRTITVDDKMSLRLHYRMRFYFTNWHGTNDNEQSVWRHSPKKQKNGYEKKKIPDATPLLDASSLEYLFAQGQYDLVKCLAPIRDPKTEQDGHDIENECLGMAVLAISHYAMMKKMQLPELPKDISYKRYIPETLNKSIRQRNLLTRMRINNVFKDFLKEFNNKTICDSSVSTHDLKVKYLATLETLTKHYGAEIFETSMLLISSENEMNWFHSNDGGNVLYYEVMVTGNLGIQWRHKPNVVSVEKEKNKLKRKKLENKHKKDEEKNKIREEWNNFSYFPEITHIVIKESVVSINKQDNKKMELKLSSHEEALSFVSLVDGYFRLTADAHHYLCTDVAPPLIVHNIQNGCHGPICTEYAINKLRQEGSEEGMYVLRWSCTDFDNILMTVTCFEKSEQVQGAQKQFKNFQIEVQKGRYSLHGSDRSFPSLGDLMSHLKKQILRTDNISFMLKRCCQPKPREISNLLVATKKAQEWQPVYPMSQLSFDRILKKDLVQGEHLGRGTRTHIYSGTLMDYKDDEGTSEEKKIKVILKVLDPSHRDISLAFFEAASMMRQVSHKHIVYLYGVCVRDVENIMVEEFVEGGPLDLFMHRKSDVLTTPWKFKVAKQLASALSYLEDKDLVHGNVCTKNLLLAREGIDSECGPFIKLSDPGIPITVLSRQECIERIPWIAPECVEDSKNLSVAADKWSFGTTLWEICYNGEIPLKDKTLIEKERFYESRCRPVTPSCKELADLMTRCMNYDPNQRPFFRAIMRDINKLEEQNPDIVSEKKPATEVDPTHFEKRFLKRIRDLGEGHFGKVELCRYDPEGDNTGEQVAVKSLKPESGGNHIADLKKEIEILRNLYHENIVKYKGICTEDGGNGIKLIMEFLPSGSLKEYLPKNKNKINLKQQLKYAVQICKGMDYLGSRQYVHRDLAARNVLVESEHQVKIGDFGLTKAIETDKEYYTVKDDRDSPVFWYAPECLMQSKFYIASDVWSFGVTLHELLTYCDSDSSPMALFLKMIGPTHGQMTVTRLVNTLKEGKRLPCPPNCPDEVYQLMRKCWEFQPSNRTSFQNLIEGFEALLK", "assay": "Inhibition of JAK1 (unknown origin) using Kinase/Tyr 6 peptide as substrate incubated for 1 hrs in presence of ATP by fluorescence microplate reader analysis"}, "Mus musculus [19]": {"tested_on": "Mus musculus", "assay": "Antiinflammatory activity in DSS-induced acute colitis C57BL/6 mouse model assessed as reduction in intestinal edema in colon by measuring histopathological score at 1 to 3 mg/kg, po by H and E staining based analysis", "assay_type": "functional, organism-based", "conditions": "dose 1-3 mg/kg"}, "THP1-Dual [20]": {"tested_on": "THP1-Dual", "assay": "Anti-inflammatory activity against LPS-stimulated human THP1-Dual cells assessed as reduction in STAT1 phosphorylation level incubated for 6 hrs by Western blot analysis", "assay_type": "functional, cell-based", "conditions": "dose 0.33-3 µM, DDE = dose-dependent effect"}, "[21]": {"assay": "Toxicity in mouse assessed as effect on red blood cell number at 20 to 50 mg/kg, IG measured upto 2 weeks", "assay_type": "organism-based", "conditions": "in vivo, po, 336 h, dose 20-50 mg/kg"}, "Mus musculus [22]": {"tested_on": "Mus musculus", "assay": "Anti-inflammatory bowl disease activity in DSS-induced acute enteritis mouse model assessed as increase in norank_f_Muribaculaceae abundance at 3 mg/kg", "assay_type": "functional, organism-based"}, "THP1-Dual [23]": {"tested_on": "THP1-Dual", "assay": "Inhibition of LPS induced TNF alpha expression in human THP1-Dual cells at 1 uM incubated for 6 hrs", "assay_type": "functional, cell-based"}, "Mus musculus [24]": {"tested_on": "Mus musculus", "assay": "Antiinflammatory activity in DSS-induced acute enteritis C57BL mouse model assessed as suppression of DSS induced weight loss at 3 mg/kg, po administered daily and measured upto 11 days relative to control", "assay_type": "functional", "conditions": "time <= 11 day"}, "[25]": {"target": "T1, Tyrosine-protein kinase JAK3 (Homo sapiens, UniProt P52333)", "T1 sequence (P52333 whole entry)": "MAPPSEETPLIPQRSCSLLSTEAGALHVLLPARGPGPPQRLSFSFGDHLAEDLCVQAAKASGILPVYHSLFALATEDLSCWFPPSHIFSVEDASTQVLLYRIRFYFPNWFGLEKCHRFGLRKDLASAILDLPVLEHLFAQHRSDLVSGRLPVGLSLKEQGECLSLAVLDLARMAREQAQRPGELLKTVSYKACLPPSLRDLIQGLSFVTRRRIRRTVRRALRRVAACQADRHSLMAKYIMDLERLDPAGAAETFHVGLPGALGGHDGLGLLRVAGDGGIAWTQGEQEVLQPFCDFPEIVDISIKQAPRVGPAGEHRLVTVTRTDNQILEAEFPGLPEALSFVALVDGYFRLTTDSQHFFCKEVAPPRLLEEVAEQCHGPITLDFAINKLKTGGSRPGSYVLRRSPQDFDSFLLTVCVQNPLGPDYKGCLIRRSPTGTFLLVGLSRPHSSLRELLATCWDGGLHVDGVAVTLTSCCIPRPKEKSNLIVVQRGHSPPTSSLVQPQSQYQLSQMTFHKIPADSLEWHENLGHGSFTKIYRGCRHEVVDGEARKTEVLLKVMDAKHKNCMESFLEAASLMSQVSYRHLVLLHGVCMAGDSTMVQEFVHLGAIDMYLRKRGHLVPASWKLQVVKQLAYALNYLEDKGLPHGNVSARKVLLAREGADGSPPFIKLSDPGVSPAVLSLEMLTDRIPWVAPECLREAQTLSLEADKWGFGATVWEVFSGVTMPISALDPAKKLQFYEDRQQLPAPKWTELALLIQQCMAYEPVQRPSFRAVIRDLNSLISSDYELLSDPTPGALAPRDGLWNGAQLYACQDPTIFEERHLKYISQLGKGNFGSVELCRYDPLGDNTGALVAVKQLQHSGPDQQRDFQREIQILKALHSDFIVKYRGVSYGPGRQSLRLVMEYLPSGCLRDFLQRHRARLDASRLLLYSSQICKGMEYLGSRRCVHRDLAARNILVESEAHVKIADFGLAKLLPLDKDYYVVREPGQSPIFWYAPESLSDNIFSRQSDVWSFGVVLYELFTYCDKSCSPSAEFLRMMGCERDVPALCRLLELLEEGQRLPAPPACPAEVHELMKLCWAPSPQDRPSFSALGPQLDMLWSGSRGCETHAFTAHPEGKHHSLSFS", "description": "Inhibition of JAK3 (unknown origin) using Kinase/Tyr 6 peptide as substrate incubated for 1 hrs in presence of ATP by fluorescence microplate reader analysis"}}, "note": "The source made the active and inactive calls. No cut-off for these calls is given here."}
{"compound": "Cc1nc2cnc3ccc(-c4cc(Cl)c(O)c(Cl)c4)cc3c2n1C1CCN(C)CC1", "values": [{"measurement": "IC50 at 24 h", "setting": "[1]", "value": "> 10000", "unit": "nM"}, {"measurement": "Activity", "setting": "[2]", "value": "Non-Toxic"}, {"measurement": "inhibition", "setting": "THP1-Dual [3]", "value": "Active"}, {"measurement": "Activity", "setting": "THP1-Dual [4]", "value": "Dde"}, {"measurement": "Activity", "setting": "THP1-Dual [5]", "value": "Active"}, {"measurement": "Activity", "setting": "Mus musculus [6]", "value": "Active"}, {"measurement": "inhibition", "setting": "THP1-Dual [7]", "value": "Active"}, {"measurement": "Activity", "setting": "THP1-Dual [8]", "value": "Dde"}, {"measurement": "Activity", "setting": "Mus musculus [9]", "value": "Active"}, {"measurement": "Activity", "setting": "Mus musculus [10]", "value": "Active"}, {"measurement": "Activity", "setting": "THP1-Dual [11]", "value": "Active"}, {"measurement": "Activity", "setting": "[12]", "value": "Non-Toxic"}, {"measurement": "Activity", "setting": "Mus musculus [13]", "value": "Active"}, {"measurement": "Activity", "setting": "[14]", "value": "Non-Toxic"}, {"measurement": "Activity", "setting": "Mus musculus [15]", "value": "Active"}, {"measurement": "Activity", "setting": "Mus musculus [16]", "value": "Active"}, {"measurement": "Activity", "setting": "[17]", "value": "Non-Toxic"}, {"measurement": "IC50", "setting": "[18]", "value": 8.9, "unit": "nM"}, {"measurement": "Activity", "setting": "Mus musculus [19]", "value": "Active"}, {"measurement": "Activity", "setting": "THP1-Dual [20]", "value": "Dde"}, {"measurement": "Activity", "setting": "[21]", "value": "Non-Toxic"}, {"measurement": "Activity", "setting": "Mus musculus [22]", "value": "Active"}, {"measurement": "inhibition", "setting": "THP1-Dual [23]", "value": "Active"}, {"measurement": "Activity", "setting": "Mus musculus [24]", "value": 10.81, "unit": "%"}, {"measurement": "IC50", "setting": "[25]", "value": 46.2, "unit": "nM"}]}
